Experimental data taken from patent US4711898A, “4-quinolone derivatives having anti-inflammatory, anti-allergic, antitussive, expectorant and antithrombotic activity” (Nippon Shinyaku Co., Ltd., priority 1982, dated 1987).
Counter-ions that a name gives are not always drawn. Like-named read-outs stand apart in the source and are kept apart here.

What was measured:
[1] = test system: SRS-A (slow reacting substance of anaphylaxis) contraction of ileum; experiment: Anti-SRS-A action using ileus of guinea pigs; type: cell-based, Hartley strain male guinea pigs; settings: 5 min, guinea pig ileum, SRS-A 20 units, compound five minutes before; for inhibition at 1 µM: Cavia porcellus, 1/1000 mM, read-out: 1/1000 mM SRS-A Inhibition Ratio %
In short: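 Ileum from male Hartley guinea pigs (300 to 350 g) in oxygenated Tyrode with 10^-7 g/ml atropine and 10^-6 g/ml pyrilamine, contracted by 20 units SRS-A. Compound added five minutes before; isotonic contraction height compared with SRS-A alone.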

[2] = test system: passive cutaneous anaphylaxis (DNP-As homocytotropic antiserum); experiment: passive cutaneous anaphylatic assay (PCA) in rats; type: in vivo, Wistar strain rats; settings: 10 mg/kg orally, one hour before antigen; for inhibition in vivo at 10 mg/kg: Rattus norvegicus, po, 1 h, read-out: PCA Inhibition Ratio %
In short: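 Wistar rats were sensitised intradermally with diluted DNP-As homocytotropic antiserum and challenged 72 h later with i.v. DNP-As plus Evans Blue. Compounds were given orally at 10 mg/kg 1 h before antigen. Dye extracted from skin sites 30 min post-challenge gave inhibition relative to controls.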

male mice = experiment: Acute toxicity after oral administration; type: in vivo
Procedure: Acute toxicity was determined two weeks after oral administration of 4000 mg/kg to male mice. Four mice (denominator) are used in each group and the dead numbers are given as the numerator. The compounds of the present invention show little, if any, toxicity.

carrageenin edema = experiment: Carrageenin edema at the hind foot of rats; type: in vivo, SD-strain rats; settings: 200 mg/kg per os, one hour before carrageenin, foot volume three hours after; for inhibition in vivo at 200 mg/kg: Rattus norvegicus, po, 3 h, read-out: % Inhibition (carrageenin edema)
Procedure: The anti-inflammatory action of the compounds of the present invention were evaluated by measuring the inhibition against carrageenin edema as set forth below. Carrageenin edema at the hind foot of rats: Experimental method. SD-strain rats of body weights of around 150 grams were used, each group consisting of five rats. A solution (0.1 ml) of 0.5% carrageenin dissolved in physiological saline water was subcutaneously injected into the right hind foot pat of the rats and, one hour prior to the injection of carrageenin, 200 mg/kg of test compound was given per os. Foot volumes of the rats before the carrageenin treatment and those of three hours after the treatment were measured and the differences were compared with those of the control group to adopt as a target of the effect of the compounds.

[3] = cited from earlier work
[4] = test system: platelet aggregation induced by ADP, collagen and AA; experiment: Action against Platelet Coagulation (aggregation in platelet rich plasma of rabbits); type: cell-based, Male rabbits; settings: Oryctolagus cuniculus; for inhibition at 100 µM: final concentration 10^-4 M; for inhibition at 10 µM: final concentration 10^-5 M; for inhibition at 1 µM: final concentration 10^-6 M
Procedure: Action against Platelet Coagulation was determined as follows: Male rabbits with body weights of 3 kg or around were used. Blood was taken from their carotid artery and, immediately thereafter, 1/10 volume (to the blood) of 3.8% aqueous solution of sodium citrate was added thereto. The mixture was centrifuged at room temperature (400 g; 10 minutes) to give platelet rich plasma (abbreviated as PRP: containing 5×10^5 platelets per mm^3). The PRP was then placed into a cell for platelet coagulation meter (Niko Bioscience), stirred, 5 microliters of test compound solution in dimethyl sulfoxide was added and, one minute thereafter, 5 micromolar of ADP, 10 micrograms/ml of collagen or 25 microliters of arachidoic acid (AA) was added thereto to observe changes of extinctions. From the maximum coagulation value at the time of administration the of test compound against that at the time of the solvent addition, inhibition was calculated and the effect of the compounds against the platelet coagulation was determined.

[5] = AA 150 μM, read-out: Inhibition (%) of platelet aggregation, AA (150 μM)
[6] = ADP 5 μM, read-out: Inhibition (%) of platelet aggregation, ADP (5 μM)
[7] = collagen 10 μg/ml, read-out: Inhibition (%) of platelet aggregation, Collagen (10 μg/ml)
[8] = 4000 mg/kg oral, male mice, two weeks, dead/group of four

Compound	inhibition at 1 µM [1] [%]	inhibition in vivo at 10 mg/kg [2] [%]	Lethal Ratio (male mice; mouse, in vivo)	inhibition in vivo at 200 mg/kg (carrageenin edema) [%]	further results
CCCCCCn1c(-c2ccccc2)cc(=O)c2cc(C(=O)O)ccc21 [Example 20]	83.9	26.4	1/4	10.6	
Cc1ccccc1-c1cc(=O)c2cc(C(=O)O)ccc2[nH]1 [Example 42]	17.4	43.2	0/4	11.8	
O=C(O)c1cc(=O)c2c(OCC(O)COc3cccc4oc(C(=O)O)cc(=O)c34)cccc2o1 [Sodium chromoglicate]					effect on oral administration [3]: does not show any effect on oral administration
O=C(O)c1cccc2c(=O)cc(-c3ccccc3Cl)[nH]c12 [Example 85]	27.9	17	0/4		
COc1ccc2c(c1)c(CC(=O)O)c(C)n2C(=O)c1ccc(Cl)cc1 [Indomethacin]					inhibition at 100 µM [4, 5]: 100%; inhibition at 10 µM [4, 5]: 100%; inhibition at 1 µM [4, 5]: 1.6%; inhibition at 100 µM [4, 6]: 2.6%; inhibition at 100 µM [4, 7]: 100%; inhibition at 10 µM [4, 7]: 100%; inhibition at 1 µM [4, 7]: 19.6%
COC(=O)c1ccc2[nH]c(-c3ccccc3I)cc(=O)c2c1 [Example 28]	55.6	19.6	0/4	15.9	
CCOC(=O)c1cccc2c(=O)cc(-c3ccc(Cl)cc3Cl)[nH]c12 [Example 89]	55.6	26.2	0/4		
COC(=O)c1ccc2[nH]c(-c3ccccc3OC)cc(=O)c2c1 [Example 56]	25.2	22.3	1/4		
O=C1CC(c2ccccc2Cl)=Nc2c1cccc2C(=O)OCCO [Example 109, Beta-Hydroxyethyl 2-(2-chlorophenyl)-4-quinolone-8-carboxylate]	100	29.2		30.7	
CCOCCOC(=O)c1cccc2c(=O)cc(-c3ccccc3Cl)[nH]c12 [Example 120]	20.3	10.7		29.4	
CC(=O)OCCOC(=O)c1cccc2c(=O)cc(-c3ccccc3Cl)[nH]c12 [Example 118]	64.2	41.5		27.9	
O=C(O)c1cccc2c(=O)cc(-c3ccccc3Cl)[nH]c12 [Example 84]					Lethal Ratio (male mice; [8]): 0/4
C=CCOC(=O)c1cccc2c1N=C(c1ccccc1Cl)CC2=O [Example 110, Allyl 2-(2-chlorophenyl)-4-quinolone-8-carboxylate]	18.9	17.7		19.2	
CCOC(=O)c1cccc2c(=O)cc(-c3ccc(C)cc3C)[nH]c12 [Example 94]	78.6	25.7	1/4		
CCOC(=O)c1cccc2c1N=C(c1ccccc1Cl)CC2=O [Example 83, ethyl 2-(2-chlorophenyl)-4-quinolone-8-carboxylate]	75.9	28.5		22.5	Lethal Ratio (male mice; [8]): 0/4; inhibition at 100 µM [4, 5]: 100%; inhibition at 10 µM [4, 5]: 3.3%; inhibition at 100 µM [4, 6]: 18.5%; inhibition at 100 µM [4, 7]: 100%; inhibition at 10 µM [4, 7]: 14%
CCOC(=O)c1cccc2c(=O)cc(-c3ccc(OC)c(OC)c3)[nH]c12 [Example 98]	20.4	16.4		16.1	
CCOC(=O)c1cccc2c(O)cc(-c3ccccc3Cl)nc12 [Example 100, Ethyl 2-(2-chlorophenyl)-4-hydroxyquinoline-8-carboxylate hydrochloride]	70.5	29.7			Lethal Ratio (male mice; [8]): 0/4
COC(=O)c1ccc2[nH]c(-c3ccc(OC)cc3OC)cc(=O)c2c1 [Example 64]	48.2	17.7		10.1	
Ethyl 2-phenyl-4-quinolone-8-carboxylate [Example 80]					1/1000 mM SRS-A Inhibition Ratio % [1]: 52.4%; PCA Inhibition Ratio % [2]: 20.9%; % Inhibition (carrageenin edema) (carrageenin edema): 14.7%
COC(=O)c1ccc2[nH]c(-c3ccccc3C)cc(=O)c2c1 [Example 41]	29.1	29.5		18.9	
COC(=O)c1ccc2[nH]c(-c3ccncc3)cc(=O)c2c1 [Example 70]	21.4	22.3		17.1	
